Measurements from patent publication US20240327381A1, “Compounds and Compositions for Selective Degradation of Engineered Proteins” (Celgene Corporation, priority 2023, published 2024).

Columns and labels:
[1] = target: T1, Helios (Homo sapiens, UniProt Q9UKS7); assay: Helios degradation in Jurkat/Helios/HiBit cells (Nano-Glo luminescence); format: cell-based; details: 18 hr, read-out: Helios Jurkat Hibit IC50
T1 construct: endogenous in cells; host or cells: Jurkat cells, CRISPR/Cas9 knock-in of HiBit at the IKZF2 locus
T1 sequence (Q9UKS7 whole entry): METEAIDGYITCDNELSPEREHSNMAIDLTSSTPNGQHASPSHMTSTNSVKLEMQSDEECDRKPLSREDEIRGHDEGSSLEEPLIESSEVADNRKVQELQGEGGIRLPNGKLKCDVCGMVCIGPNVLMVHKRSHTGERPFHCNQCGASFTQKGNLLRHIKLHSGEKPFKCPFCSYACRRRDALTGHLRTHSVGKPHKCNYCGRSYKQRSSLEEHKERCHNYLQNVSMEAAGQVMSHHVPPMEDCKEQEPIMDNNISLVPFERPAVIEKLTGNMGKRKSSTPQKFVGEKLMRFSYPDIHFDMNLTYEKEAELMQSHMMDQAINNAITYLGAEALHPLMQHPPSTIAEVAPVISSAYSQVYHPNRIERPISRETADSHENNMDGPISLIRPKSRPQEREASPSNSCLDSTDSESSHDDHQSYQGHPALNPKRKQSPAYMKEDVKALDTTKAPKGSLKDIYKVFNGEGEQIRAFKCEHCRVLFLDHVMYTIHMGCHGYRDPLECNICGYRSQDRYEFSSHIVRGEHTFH
T1 sequence (Q96SW2 whole entry, further chain): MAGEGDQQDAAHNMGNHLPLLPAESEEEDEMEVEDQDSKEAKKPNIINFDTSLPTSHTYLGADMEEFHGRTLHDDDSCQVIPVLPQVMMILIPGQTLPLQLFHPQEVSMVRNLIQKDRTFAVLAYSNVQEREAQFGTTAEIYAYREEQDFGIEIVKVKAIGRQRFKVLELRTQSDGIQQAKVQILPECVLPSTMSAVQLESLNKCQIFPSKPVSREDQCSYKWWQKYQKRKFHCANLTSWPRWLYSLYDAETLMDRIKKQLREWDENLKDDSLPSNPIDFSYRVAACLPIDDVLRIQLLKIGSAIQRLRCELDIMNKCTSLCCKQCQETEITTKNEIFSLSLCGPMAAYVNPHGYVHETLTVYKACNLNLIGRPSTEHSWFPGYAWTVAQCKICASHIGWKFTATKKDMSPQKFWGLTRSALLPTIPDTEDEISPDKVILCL
T1 sequence (Q16531 whole entry partner): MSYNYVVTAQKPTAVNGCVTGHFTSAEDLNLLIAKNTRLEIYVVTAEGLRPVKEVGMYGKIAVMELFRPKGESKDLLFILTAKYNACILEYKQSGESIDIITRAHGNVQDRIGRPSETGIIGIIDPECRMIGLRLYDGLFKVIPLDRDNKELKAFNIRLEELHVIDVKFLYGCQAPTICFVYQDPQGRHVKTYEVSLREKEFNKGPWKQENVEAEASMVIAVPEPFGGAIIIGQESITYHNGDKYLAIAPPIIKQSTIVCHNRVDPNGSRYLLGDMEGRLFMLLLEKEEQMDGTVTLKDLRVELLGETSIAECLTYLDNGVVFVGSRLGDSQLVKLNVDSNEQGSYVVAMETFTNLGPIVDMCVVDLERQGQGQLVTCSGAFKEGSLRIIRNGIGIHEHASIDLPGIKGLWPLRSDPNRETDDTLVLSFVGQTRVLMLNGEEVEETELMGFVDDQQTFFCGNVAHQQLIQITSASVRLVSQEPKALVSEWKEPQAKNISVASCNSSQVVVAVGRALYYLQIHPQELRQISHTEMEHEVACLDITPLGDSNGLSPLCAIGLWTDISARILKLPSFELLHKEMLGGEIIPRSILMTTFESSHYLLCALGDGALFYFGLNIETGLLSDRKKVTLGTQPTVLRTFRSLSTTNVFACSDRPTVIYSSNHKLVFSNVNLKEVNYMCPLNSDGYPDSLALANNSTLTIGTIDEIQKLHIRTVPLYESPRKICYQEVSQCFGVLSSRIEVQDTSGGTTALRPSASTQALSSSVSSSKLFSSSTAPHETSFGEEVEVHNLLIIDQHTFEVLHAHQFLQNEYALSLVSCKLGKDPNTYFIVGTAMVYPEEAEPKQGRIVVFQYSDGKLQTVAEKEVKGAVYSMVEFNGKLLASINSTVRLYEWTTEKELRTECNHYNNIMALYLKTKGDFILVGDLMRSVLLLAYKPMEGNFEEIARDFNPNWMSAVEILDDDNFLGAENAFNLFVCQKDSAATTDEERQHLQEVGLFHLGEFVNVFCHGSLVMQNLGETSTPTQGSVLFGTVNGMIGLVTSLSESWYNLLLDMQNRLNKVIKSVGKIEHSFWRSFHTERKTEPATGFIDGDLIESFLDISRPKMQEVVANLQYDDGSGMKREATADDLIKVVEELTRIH
Method: For Helios, a stable Jurkat cell line was engineered using CRISPR/Cas9 to insert an in-frame HiBit tag into the carboxy-terminal reading frame of the IKZF2 gene. The sequence of human Helios is shown below:
Test compounds were transferred to 1536 well plates using an acoustic dispenser, and Jurkat/Helios/HiBit cells in DMEM/10% FCS were plated at 10,000 cells/well in a final volume of 5 μL. Cells were incubated at 37 C, 95% RH for 18 hr. Luciferase activity was measured by adding 2 μL/well of Nano-Glo reagent (Promega), incubating at RT for 30 min, and reading luminescence on a microtiter plate reader.
(§1) To determine the EC50 value of a compound for the degradation of a given substrate (concentration of compound that achieves half the maximum degradation observed), a four-parameter logistic model (sigmoidal dose-response model) (FIT=(A+{(B−A)/1+[(C/x)D]})) where C is the inflection point (EC50), D is the […], and A and B are the low and high limits of the fit, respectively) was used. All substrate degradation curves were processed and evaluated using ActivityBase (IDBS), a data analysis software package. Ymax is the % protein degraded (Ymin=100−Ymax and is minimum percent protein remaining).

[2] = target: T2, IKZF1 ZNF2_ZNF3 Q1F degron-tagged CD19 CAR (Homo sapiens, UniProt Q13422, Q146F); assay: Degradation of Q1F degron-tagged CD19 CAR in Jurkat cells (flow cytometry of CAR levels); format: cell-based; details: for DC50: Jurkat cells expressing CD19 CAR tagged with IKZF1 ZNF2_ZNF3 Q1F, 18 hours at 37° C., CAR levels normalized to untreated cells, read-out: Q1F Jurkat IC50; for Dmax: Ymax is the % protein degraded, Jurkat cells expressing Q1F degron-tagged CD19 CAR, 18 hours, read-out: Q1F Jurkat-YMax
T2 construct: ZNF2_ZNF3 Q1F degron (GERPFFCNQCGASFTQKGNLLRHIKLHSGEKPFKCHLCNYACRRRDALTGHLRTHS); fused on or other part: anti-CD19 scFv, CD28 transmembrane domain, 4-1BB costimulatory domain, CD3 zeta signaling domain (the CAR that carries the degron), and Nluc
T2 sequence (Q13422 whole entry Q146F, the tested form may be a part): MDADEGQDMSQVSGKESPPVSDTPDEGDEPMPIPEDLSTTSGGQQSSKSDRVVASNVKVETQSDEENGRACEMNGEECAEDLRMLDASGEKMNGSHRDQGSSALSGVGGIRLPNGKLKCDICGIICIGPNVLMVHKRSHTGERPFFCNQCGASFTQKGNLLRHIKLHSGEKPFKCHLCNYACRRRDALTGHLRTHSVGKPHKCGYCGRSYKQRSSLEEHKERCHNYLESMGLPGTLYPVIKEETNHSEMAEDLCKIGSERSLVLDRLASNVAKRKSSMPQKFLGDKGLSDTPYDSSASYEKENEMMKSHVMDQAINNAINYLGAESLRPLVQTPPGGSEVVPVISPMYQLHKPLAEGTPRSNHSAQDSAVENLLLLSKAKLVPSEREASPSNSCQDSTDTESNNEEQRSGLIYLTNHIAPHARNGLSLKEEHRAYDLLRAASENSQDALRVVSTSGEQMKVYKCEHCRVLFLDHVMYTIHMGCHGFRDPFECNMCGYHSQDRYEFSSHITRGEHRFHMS
Source text: Q1F degron-targeting compounds were screened in Jurkat cells engineered to express a IKZF1 ZNF2_ZNF3 Q1F. The cell line was generated with lentiviral vectors containing CD19 CARs tagged with IKZF1 ZNF2_ZNF3 QIF Nluc, which were transduced into Jurkat cells. The CD19 CAR comprised an anti-CD19 scFv, a CD28 transmembrane domain, a 4-1BB costimulatory domain, a CD3ζ signaling domain, and a ZNF2_ZNF3 Q1F degron (GERPFFCNQCGASFTQKGNLLRHIKLHSGEKPFKCHLCNYACRRRDALTGHLRTHS; SEQ ID NO: 1; Q1F substitution underlined). Transduced cells were treated with a titration of each small molecule or no drug and then incubated at 37° C. for 18 hours. Cells were washed and stained with appropriate staining reagent to measure CAR levels. The cells were incubated at 4° C. in the staining reagents for 20 mins and then washed 3 times before being read on the flow cytometer. CAR levels were normalized to cells that had not been treated with drug. EC50 and Ymin values were calculated using the resulting titration curve. This identified small molecules that potently degraded the Q1F degron-tagged CARs (Table 1).
as §1

SMILES	DC50 [1]	DC50 [2]	Dmax [2]
O=C1CCC(N2Cc3c(cc(F)c(C4(O)CCN(Cc5ccc6cn[nH]c6c5)CC4)c3F)C2=O)C(=O)N1 (stereo not drawn) [Compound 42, 3-[4,6-difluoro-5-[4-hydroxy-1-(1H-indazol-6-ylmethyl)-4-piperidyl]-1-oxo-isoindolin-2-yl]piperidine-2,6-dione]	≥ 10 µM	4.39 nM	87.7%
O=C1CCC(N2Cc3c(cc(F)c(C4(O)CCN(Cc5coc(-c6cccs6)n5)CC4)c3F)C2=O)C(=O)N1 (stereo not drawn) [Compound 14, 3-(4,6-difluoro-5-(4-hydroxy-1-((2-(thiophen-2-yl)oxazol-4-yl)methyl)piperidin-4-yl)-1-oxoisoindolin-2-yl)piperidine-2,6-dione]	≥ 10 µM	22.4 nM	66.9%
CN(CCN1CCC(c2c(F)cc3c(c2F)CN(C2CCC(=O)NC2=O)C3=O)CC1)Cc1ccccc1 (stereo not drawn) [Compound 65, 3-(5-(1-(2-(benzyl(methyl)amino)ethyl)piperidin-4-yl)-4,6-difluoro-1-oxoisoindolin-2-yl)piperidine-2,6-dione]	≥ 10 µM	1.09 nM	85.5%
O=C1CCC(N2Cc3c(cc(F)c(C4CCN(Cc5ccc(F)cc5)CC4)c3F)C2=O)C(=O)N1 (stereo not drawn) [Compound 2, 3-(4,6-difluoro-5-(1-(4-fluorobenzyl)piperidin-4-yl)-1-oxoisoindolin-2-yl)piperidine-2,6-dione]	≥ 10 µM	1.43 nM	88.8%
O=C1CCC(N2Cc3c(cc(F)c(C4CCN(Cc5ccsc5)CC4)c3F)C2=O)C(=O)N1 (stereo not drawn) [Compound 6, 3-(4,6-difluoro-1-oxo-5-(1-(thiophen-3-ylmethyl)piperidin-4-yl)isoindolin-2-yl)piperidine-2,6-dione]	≥ 10 µM	5 nM	89.1%
O=C1CCC(N2Cc3c(cc(F)c(C4(O)CCN(Cc5ccc(C(F)(F)F)cc5Br)CC4)c3F)C2=O)C(=O)N1 (stereo not drawn) [Compound 31, 3-(5-(1-(2-bromo-4-(trifluoromethyl)benzyl)-4-hydroxypiperidin-4-yl)-4,6-difluoro-1-oxoisoindolin-2-yl)piperidine-2,6-dione]	≥ 10 µM	14 nM	82.8%
O=C1CCC(N2Cc3c(cc(F)c(C4(O)CCN(Cc5n[nH]c6ccccc56)CC4)c3F)C2=O)C(=O)N1 (stereo not drawn) [Compound 41, 3-[4,6-difluoro-5-[4-hydroxy-1-(1H-indazol-3-ylmethyl)-4-piperidyl]-1-oxo-isoindolin-2-yl] piperidine-2,6-dione]	≥ 10 µM	95.3 nM	66.2%
COc1cccc(CN2CCC(O)(c3c(F)cc4c(c3F)CN(C3CCC(=O)NC3=O)C4=O)CC2)c1 (stereo not drawn) [Compound 36, 3-(4,6-difluoro-5-(4-hydroxy-1-(3-methoxybenzyl)piperidin-4-yl)-1-oxoisoindolin-2-yl)piperidine-2,6-dione]	≥ 10 µM	3.77 nM	77.7%
O=C1CCC(N2Cc3cc(C4(O)CCN(Cc5ccc6ncsc6c5)CC4)c(F)cc3C2=O)C(=O)N1 (stereo not drawn) [Compound 35, 3-(5-(1-(benzo[d]thiazol-6-ylmethyl)-4-hydroxypiperidin-4-yl)-6-fluoro-1-oxoisoindolin-2-yl) piperidine-2,6-dione]	≥ 10 µM	144 nM	63.3%
O=C1CCC(N2Cc3c(cc(F)c(C4(O)CCN(Cc5cc(C(F)(F)F)cc(C6CC6)n5)CC4)c3F)C2=O)C(=O)N1 (stereo not drawn) [Compound 17, 3-(5-(1-((6-cyclopropyl-4-(trifluoromethyl)pyridin-2-yl)methyl)-4-hydroxypiperidin-4-yl)-4,6-difluoro-1-oxoisoindolin-2-yl)piperidine-2,6-dione]	≥ 10 µM	28.9 nM	69.2%
O=C1CCC(N2Cc3c(cc(F)c(C4(O)CCN(Cc5ccc6nc[nH]c6c5)CC4)c3F)C2=O)C(=O)N1 (stereo not drawn) [Compound 44, 3-[5-[1-(3H-benzimidazol-5-ylmethyl)-4-hydroxy-4-piperidyl]-4,6-difluoro-1-oxo-isoindolin-2-yl]piperidine-2,6-dione]	≥ 10 µM	120 nM	82.1%
Cc1ccc(CN2CCC(O)(c3c(F)cc4c(c3F)CN(C3CCC(=O)NC3=O)C4=O)CC2)cc1C (stereo not drawn) [Compound 43, 3-[5-[1-[(3,4-dimethylphenyl)methyl]-4-hydroxy-4-piperidyl]-4,6-difluoro-1-oxo-isoindolin-2-yl]piperidine-2,6-dione]	≥ 10 µM	2.75 nM	80.2%

More lines, now with the values ahead:

DC50 [1]	DC50 [2]	Dmax [2]	SMILES
≥ 10 µM	1.96 nM	84.7%	Cc1cc(CN2CCC(c3c(F)cc4c(c3F)CN(C3CCC(=O)NC3=O)C4=O)CC2)nn1C (stereo not drawn) [Compound 103, 3-(5-(1-((1,5-dimethyl-1H-pyrazol-3-yl)methyl)piperidin-4-yl)-4,6-difluoro-1-oxoisoindolin-2-yl)piperidine-2,6-dione]
≥ 10 µM	369 nM	58.6%	O=C1CCC(N2Cc3c(cc(F)c(C4CCN(Cc5nc(-c6ccccc6)no5)CC4)c3F)C2=O)C(=O)N1 (stereo not drawn) [Compound 99, 3-(4,6-difluoro-1-oxo-5-(1-((3-phenyl-1,2,4-oxadiazol-5-yl)methyl)piperidin-4-yl)isoindolin-2-yl)piperidine-2,6-dione]
≥ 10 µM	30.9 nM	83.6%	O=C1CCC(N2Cc3c(cc(F)c(C4CCN(Cc5nc(C6CC6)cs5)CC4)c3F)C2=O)C(=O)N1 (stereo not drawn) [Compound 104, 3-(5-(1-((4-cyclopropylthiazol-2-yl)methyl)piperidin-4-yl)-4,6-difluoro-1-oxoisoindolin-2-yl)piperidine-2,6-dione]
≥ 10 µM	22.1 nM	80.1%	CN1CCC(N2CCC(c3c(F)cc4c(c3F)CN(C3CCC(=O)NC3=O)C4=O)CC2)CC1 (stereo not drawn) [Compound 125, 3-(4,6-difluoro-5-(1′-methyl-[1,4′-bipiperidin]-4-yl)-1-oxoisoindolin-2-yl)piperidine-2,6-dione]
≥ 10 µM	65.1 nM	74.2%	CNC(=O)CN1CCC(c2c(F)cc3c(c2F)CN(C2CCC(=O)NC2=O)C3=O)CC1 (stereo not drawn) [Compound 122, 2-(4-(2-(2,6-dioxopiperidin-3-yl)-4,6-difluoro-1-oxoisoindolin-5-yl)piperidin-1-yl)-N-methylacetamide]
≥ 10 µM	10.5 nM	84.5%	CC(C)CN1CCC(c2c(F)cc3c(c2F)CN(C2CCC(=O)NC2=O)C3=O)CC1 (stereo not drawn) [Compound 95, 3-(4,6-difluoro-5-(1-isobutylpiperidin-4-yl)-1-oxoisoindolin-2-yl)piperidine-2,6-dione]
≥ 10 µM	0.533 nM	85.1%	CN(CCN1CCC(c2cc3c(cc2F)C(=O)N(C2CCC(=O)NC2=O)C3)CC1)Cc1ccccc1 (stereo not drawn) [Compound 80, 3-(5-(1-(2-(benzyl(methyl)amino)ethyl)piperidin-4-yl)-6-fluoro-1-oxoisoindolin-2-yl)piperidine-2,6-dione]
≥ 10 µM	3.66 nM	83.1%	CN(C)CCCOc1ccc(CN2CCC(c3c(F)cc4c(c3F)CN(C3CCC(=O)NC3=O)C4=O)CC2)cc1 (stereo not drawn) [Compound 108, 3-(5-(1-(4-(3-(dimethylamino)propoxy)benzyl)piperidin-4-yl)-4,6-difluoro-1-oxoisoindolin-2-yl)piperidine-2,6-dione]
≥ 10 µM	4.68 nM	93.1%	CS(=O)(=O)c1ccc(CN2CCC(c3cc4c(cc3F)C(=O)N(C3CCC(=O)NC3=O)C4)CC2)cc1 (stereo not drawn) [Compound 90, 3-(6-fluoro-5-(1-(4-(methylsulfonyl)benzyl)piperidin-4-yl)-1-oxoisoindolin-2-yl)piperidine-2,6-dione]
≥ 10 µM	7.45 nM	82.7%	Cc1ccc(CCN2CCC(c3c(F)cc4c(c3F)CN(C3CCC(=O)NC3=O)C4=O)CC2)cc1 (stereo not drawn) [Compound 111, 3-(4,6-difluoro-5-(1-(4-methylphenethyl)piperidin-4-yl)-1-oxoisoindolin-2-yl)piperidine-2,6-dione]
